Data on 45 substances can be found in patent US20250213707A1, “COMPOUND FOR INCREASING EFFICACY OF ONCOLYTIC VIRUSES” (ABLEVIA BIOTECH GMBH, priority 2022, published 2025).

One test has as its system IgG from human donors (anti-AAV antibodies). Kind of test: Screen for anti-AAV antibodies in human sera, 2452 linear 15-amino-acid AAV peptides on microarrays (Table 1). Type of test: binding. Further details: key to group II: X: the deduplicated aggregate of the respective top 25 peptide hits for each donor was compiled and designated as group II; key to group III: X: the deduplicated aggregate of the respective top 50 peptide hits for each donor was compiled and designated as group III. Conditions: X = peptide belongs to the deduplicated aggregate of the top 25 peptide hits for each donor; linear 15-amino-acid AAV peptides, IgG binding by fluorescence. On the procedure: 2452 linear peptides derived from the sequences of 16 different AAVs and with a sequence length of 15 amino-acids each were synthesized.
Samples obtained from human donors were screened for antibodies against these AAV-derived peptides immobilized on microarrays. To this end, IgG was prepared from blood obtained from the human donors by protein G purification. Each IgG sample was incubated with the peptide microarrays and Ig binding signals were detected by fluorescence. All antibody binding signals to the peptides on the arrays were background subtracted and ranked for each sample and a deduplicated aggregate of the respective top 250 peptide hits for each donor with the corresponding protein sequence of origin (as obtained from UniProt or other sources) was compiled (designated as group IV). Further, the deduplicated aggregate of the respective top 50 peptide hits for each donor was compiled and designated as group III. Further, the deduplicated aggregate of the respective top 25 peptide hits for each donor was compiled and designated as group II. Finally, the deduplicated aggregate of the respective top 10 peptide hits for each donor was compiled and designated as group I.
Altogether, group I contains 110 distinct peptide hits (assigned to the corresponding AAV vectors in Table 1), group II contains 289 distinct peptide hits, group III contains 428 distinct peptide hits and group IV contains 1271 distinct peptide hits. Evidently, group I is a subset of group II which in turn is a subset of group III which in turn is a subset of group IV. Groups I-IV correspond to the top 4.4%, […], 17.5% and 51.8%, respectively, of all peptides screened.
In the case of “281 (SKPSTSSDAEAGPSG; REGION 1..15: note = peptide derived from viral capsid protein) [compound 281]”, the “group II” value was “X”. As for “282 (FITQYSTGQVTVEME; REGION 1..15: note = peptide derived from viral capsid protein) [compound 282]”, the “group II” value is listed as “X”. For the substance “283 (EFLGLEAGPPKPKPN; REGION 1..15: note = peptide derived from viral capsid protein) [compound 283]”, the “group II” value is recorded as “X”. Still for that read-out and setting: the value for “284 (NVGGQMATNNQSSTT; REGION 1..15: note = peptide derived from viral capsid protein) [compound 284]” was “X”; that for “285 (PSKMLRTGNNFEFTY; REGION 1..15: note = peptide derived from viral capsid protein) [compound 285]” was “X”; that for “286 (VLEPFGLVEEGAKTA; REGION 1..15: note = peptide derived from viral capsid protein) [compound 286]” was “X”. For “287 (AQPASSLGADTMSAG; REGION 1..15: note = peptide derived from viral capsid protein) [compound 287]”, the “group II” value is “X”. On to “288 (VQDSTTTIANNLTST; REGION 1..15: note = peptide derived from viral capsid protein) [compound 288]”, for which the “group II” value is “X”.

With “289 (YLEGNMLITSESETQ; REGION 1..15: note = peptide derived from viral capsid protein) [compound 289]”, the “group II” value was “X”.

The test is the same for the next values; noted with them: X = peptide belongs to the deduplicated aggregate of the top 50 peptide hits for each donor; linear 15-amino-acid AAV peptides, IgG binding by fluorescence.
As to “281 (SKPSTSSDAEAGPSG; REGION 1..15: note = peptide derived from viral capsid protein) [compound 281]”, the “group III” value is “X”. Same read-out and setting: the value for “282 (FITQYSTGQVTVEME; REGION 1..15: note = peptide derived from viral capsid protein) [compound 282]” was “X”; that for “283 (EFLGLEAGPPKPKPN; REGION 1..15: note = peptide derived from viral capsid protein) [compound 283]” was “X”; that for “284 (NVGGQMATNNQSSTT; REGION 1..15: note = peptide derived from viral capsid protein) [compound 284]” was “X”. The same measure, in the same setting: next, “285 (PSKMLRTGNNFEFTY; REGION 1..15: note = peptide derived from viral capsid protein) [compound 285]”: “X”; “286 (VLEPFGLVEEGAKTA; REGION 1..15: note = peptide derived from viral capsid protein) [compound 286]”: “X”; “287 (AQPASSLGADTMSAG; REGION 1..15: note = peptide derived from viral capsid protein) [compound 287]”: “X”. On the same count and under the same terms, next, “288 (VQDSTTTIANNLTST; REGION 1..15: note = peptide derived from viral capsid protein) [compound 288]”: “X”; “289 (YLEGNMLITSESETQ; REGION 1..15: note = peptide derived from viral capsid protein) [compound 289]”: “X”. Take “290 (NVDFAVNTDGTYSEP; REGION 1..15: note = peptide derived from viral capsid protein) [compound 290]”: the “group III” value is reported as “X”.

Consider “291 (KDNVDYSSVMLTSEE; REGION 1..15: note = peptide derived from viral capsid protein) [compound 291]”, for which the “group III” value is on record as “X”. On the same count and under the same terms, next, “292 (HDDEERFFPSSGVLM; REGION 1..15: note = peptide derived from viral capsid protein) [compound 292]”: “X”; “293 (SQMLRTGNFEFSYFE; REGION 1..15: note = peptide derived from viral capsid protein) [compound 293]”: “X”; “294 (GDSESVPDPQPIGEP; REGION 1..15: note = peptide derived from viral capsid protein) [compound 294]”: “X”. Take “295 (DNPYLRYHADAEFQE; REGION 1..15: note = peptide derived from viral capsid protein) [compound 295]”: the “group III” value is “X”. For “296 (NTPVPADPPTTFNQA; REGION 1..15: note = peptide derived from viral capsid protein) [compound 296]”, the “group III” value is “X”. On the same count and under the same terms, the value for “297 (DSLVNPGVAMATHDD; REGION 1..15: note = peptide derived from viral capsid protein) [compound 297]” was “X”.

In the case of “298 (PLGLVESPVKTAPGK; REGION 1..15: note = peptide derived from viral capsid protein) [compound 298]”, the “group III” value was “X”. Same read-out and setting: next, “299 (SRTQSTGGTAGTQQL; REGION 1..15: note = peptide derived from viral capsid protein) [compound 299]”: “X”; “300 (TFNQAKLASFITQYS; REGION 1..15: note = peptide derived from viral capsid protein) [compound 300]”: “X”; “301 (STTLSQNNNSNFAWT; REGION 1..15: note = peptide derived from viral capsid protein) [compound 301]”: “×”. Still for that read-out and setting: the value for “311 (QGVLPGMVWQDRDVY; REGION 1..15: note = peptide derived from viral capsid protein) [compound 311]” was “X”; that for “312 (NEADAAALEHDKAYD; REGION 1..15: note = peptide derived from viral capsid protein) [compound 312]” was “X”; that for “313 (QGCLPPFPADVFMVP; REGION 1..15: note = peptide derived from viral capsid protein) [compound 313]” was “X”. Regarding “314 (EHDKAYDRQLDSGDN; REGION 1..15: note = peptide derived from viral capsid protein) [compound 314]”, the “group III” value is listed as “X”.

As to “315 (PFPADVFMVPQYGYL; REGION 1..15: note = peptide derived from viral capsid protein) [compound 315]”, the “group III” value is given as “X”. As to “316 (EPVKTAPGKKRPVEH; REGION 1..15: note = peptide derived from viral capsid protein) [compound 316]”, the “group III” value is given as “X”. Take “317 (HKDDEEKFFPQSGVL; REGION 1..15: note = peptide derived from viral capsid protein) [compound 317]”: the “group III” value was “X”. For “318 (DKGEPVNEADAAALE; REGION 1..15: note = peptide derived from viral capsid protein) [compound 318]”, the “group III” value is given as “X”. The same measure, in the same setting: next, “319 (EQYGSVSTNLQRGNR; REGION 1..15: note = peptide derived from viral capsid protein) [compound 319]”: “X”.

For the substance “320 (GPPPPKPAERHKDDS; REGION 1..15: note = peptide derived from viral capsid protein) [compound 320]”, the “group III” value was “X”.

Take “321 (IEKVMITDEEEIRTT; REGION 1..15: note = peptide derived from viral capsid protein) [compound 321]”: the “group III” value is “X”. As to “322 (KSVNVDFTVDTNGVY; REGION 1..15: note = peptide derived from viral capsid protein) [compound 322]”, the “group III” value is reported as “X”.

On to “323 (RPVEHSPVEPDSSSG; REGION 1..15: note = peptide derived from viral capsid protein) [compound 323]”, for which the “group III” value is on record as “X”. On the same count and under the same terms, next, “324 (SDIRDQSRNWLPGPC; REGION 1..15: note = peptide derived from viral capsid protein) [compound 324]”: “X”; “325 (DNNEGADGVGNSSGN; REGION 1..15: note = peptide derived from viral capsid protein) [compound 325]”: “X”; “326 (PVATEQYGSVSTNLQ; REGION 1..15: note = peptide derived from viral capsid protein) [compound 326]”: “X”. On the same count and under the same terms, the value for “327 (QVKEVTQNDGTTTIA; REGION 1..15: note = peptide derived from viral capsid protein) [compound 327]” was “X”.

Consider “328 (STVQVFTDSEYQLPY; REGION 1..15: note = peptide derived from viral capsid protein) [compound 328]”, for which the “group III” value is “X”. Regarding “329 (DADSVPDPQPLGQPP; REGION 1..15: note = peptide derived from viral capsid protein) [compound 329]”, the “group III” value is “X”. The same measure, in the same setting: the value for “330 (DSGDNPYLKYNHADA; REGION 1..15: note = peptide derived from viral capsid protein) [compound 330]” was “X”; that for “331 (DSLVNPGPAMASHKD; REGION 1..15: note = peptide derived from viral capsid protein) [compound 331]” was “X”.

“332 (ISSQSGASNDNHYFG; REGION 1..15: note = peptide derived from viral capsid protein) [compound 332]”: the “group III” value was “X”. Same read-out and setting: next, “333 (MITDEEEIRTTNPVA; REGION 1..15: note = peptide derived from viral capsid protein) [compound 333]”: “X”. On the same count and under the same terms, the value for “334 (RQWWKLKPGPPPPKP; REGION 1..15: note = peptide derived from viral capsid protein) [compound 334]” was “X”.
